pIC50: −log10 of the molar value. Like-named read-outs stand apart in the source and are kept apart here. Marks after values point to notes of the source that are not given here.
Assays:
AAMU-Ab = assay: Competitive antigen ELISA, cross-reactivity of AAMU-Ab; type: binding, rabbit; conditions: for % Cross-Reaction AAMU-Ab: competitive antigen ELISA, 0 = absence of inhibition or inhibition no higher than 40% at highest concentration tested (5×10^−3 M)
Procedure: (§1) Four mature females New Zealand white rabbits (Charles River Canada, St-Constant, Que., Canada) are used for antibody production. The protocol employed in this study was approved by the McGill University Animal Care Committee in accordance with the guidelines from the Canadian Council on Animal Care. Antibodies of the present invention may be monoclonal or polyclonal antibodies.
(§2) A 0.5 mL aliquot of the emulsion ([…] of antigen) is injected per rabbit intramuscularly or subcutaneously. Rabbits are subsequently boosted at intervals of three weeks with […] of antigen emulsified in incomplete Freund's adjuvant. […] Antisera are stored at 4° C. in the presence of 0.01% sodium azide.
(§3) Buffers and water without additives are filtered through millipore filters and kept for 1 week. BSA, antibodies, Tween™ 20 and horse radish peroxidase conjugates are added to these buffers and water just prior to use. Urine samples are usually collected 4 hours after drinking a cup of coffee (instant or brewed with approximately 100 mg of caffeine per cup) and stored at −80° C. The urine samples are diluted 10 times with sodium phosphate buffer (620 mosm, pH 7.50) and are subsequently diluted with water to give concentrations of AAMU and 1X no higher than 3×10^−6 M in the ELISA. All the pipettings are done with an eight-channel pipette, except those of the antibody and sample solutions. Starting with the last well, 100 μL of a carbonate buffer (100 mM, pH 9.6) containing 2.5 μg mL−^1 antibodies are added to each well. After 90 min. at room temperature, the wells are washed three times with […] of TPB: isotonic sodium phosphate buffer (310 mosm, pH 7.50) containing 0.05% Tween™ 20.
(§4) After the initial wash, unoccupied sites are blocked by incubation for 90 min. at room temperature with 100 μL TBP containing 3% BSA. The wells are washed four times with 100 μL TPB. […] The microplate is gently shaken with an orbital shaker at room temperature for 3-4 hours. The wells are washed three times with 100 μL TPB containing 1% BSA and three times with water containing 0.05% Tween™ 20. To the washed plate is added 150 μL of a substrate buffer composed of citric acid (25 mM) and sodium phosphate dibasic buffer (50 mM, pH 5.0) containing 0.06% hydrogen peroxide and 0.04% o-phenylenediamine hydrochloride.
(§5) Buffers and water without additives were filtered through millipore filters and kept for 1 week. BSA, antibodies, Tween™ 20 and horse radish peroxidase conjugates were added to these buffers and water just prior to use. Urine samples were usually collected 4 hours after drinking a cup of coffee (instant or brewed with approximately 100 mg of caffeine per cup) and stored at −80° C. They were diluted 10 times with sodium phosphate buffer (620 mosm, pH 7.50) and were subsequently diluted with water to give concentrations of AAMU and 1X no higher than 3×10^−6 M in the ELISA. All the pipettings were done with an eight-channel pipette, except those of the antibody and sample solutions. Starting with the last well, 100 μL of a carbonate buffer (100 mM, pH 9.6) containing 2.5 μg mL−^1 antibodies was pipetted. After 90 min. at room temperature, the wells were washed three times with 100 μL of TPB: isotonic sodium phosphate buffer (310 mosm, pH 7.50) containing 0.05% Tween™ 20.
(§6) After the initial wash, unoccupied sites were blocked by incubation for 90 min. at room temperature with 100 μL TBP containing 3% BSA. The wells were washed four times with 100 μL TPB. […] The microplate was gently shaken with an orbital shaker at room temperature for 3-4 hours. The wells were washed three times with […] TPB containing 1% BSA and three times with water containing 0.05% Tween™ 20. To the washed plate was added 150 μL of a substrate buffer composed of citric acid (25 mM) and sodium phosphate dibasic buffer (50 mM, pH 5.0) containing 0.06% hydrogen peroxide and 0.04% o-phenylenediamine hydrochloride.

1X-Ab = assay: Competitive antigen ELISA, cross-reactivity of 1X-Ab; type: binding, rabbit; conditions: for % Cross-Reaction 1X-Ab: competitive antigen ELISA, 0 = absence of inhibition or inhibition no higher than 40% at highest concentration tested (5×10^−3 M)
Procedure: as §1, §2, §3, §4, §5, §6

[1] = cited from earlier work
[2] = cited from earlier work; remark: listed apart in the source

Compound	% Cross-Reaction AAMU-Ab (AAMU-Ab)	% Cross-Reaction 1X-Ab (1X-Ab)	further results
Cn1c(=O)c2c(ncn2C)n(C)c1=O [1,3,7-Trimethyl Xanthine (Caffeine), 1,3,7-Trimethyl Xanthine]	0%	0%	
Cn1c(=O)[nH]c2ncn(C)c2c1=O [1,7-Dimethyl Xanthine (Paraxanthine), 1,7-Dimethyl Xanthine]	0%	0.5%	
Cn1c(=O)[nH]c2[nH]c(=O)[nH]c2c1=O [1-Methyluric acid]	0%	11%	
Cn1cnc2c1c(=O)[nH]c(=O)n2C [3,7-Dimethyl Xanthine (Theobromine), 3,7-Dimethyl Xanthine]	0%	0%	
COc1cccc(C2(O)CCCCC2CN(C)C)c1 (stereo not drawn) [tramadol]			experimental pain model procedures with statistically significant effects ([1]; extensive metabolizers (CYP2D6), 15 individuals): seven of seven; experimental pain model procedures with statistically significant effects ([1]; poor metabolizers (CYP2D6), 12 individuals): three of seven
O=c1[nH]c(=O)c2[nH]c(=O)[nH]c2[nH]1 [Uric acid]	0%	0%	
CC(=O)Nc1c(N)n(C)c(=O)[nH]c1=O [5-Acetamino-6-amino-1-methyluracil]	100%	0%	pIC50 (AAMU-Ab; read-out: concentration required for 50% inhibition in the competitive antigen ELISA, AAMU-Ab): 5.82
CC(=O)Nc1c(N)n(C)c(=O)n(C)c1=O [5-Acetamino-6-amino-1,3-dimethyluracil]	0%	0%	
Nc1nc2nc[nH]c2c(=O)[nH]1 [Guanine]	0%	0%	
Nc1ccc(S(=O)(=O)c2ccc(N)cc2)cc1 [dapsone]			adverse reactions to dapsone ([2]; fast acetylators): 17%; adverse reactions to dapsone ([2]; slow acetylators): 46%
O=c1[nH]c(=O)c2[nH]cnc2[nH]1 [Xanthine]	0^a %	0%	
Cn1cnc2[nH]c(=O)[nH]c(=O)c21 [7-Methyl Xanthine]	0%	0%	
O=c1[nH]cnc2nc[nH]c12 [Hypoxanthine]	0%	0%	
Cc1nc2[nH]c(=O)[nH]c(=O)c2[nH]1 [8-Methyl Xanthine]	0%	0%	
CC(=O)Nc1c(N)[nH]c(=O)[nH]c1=O [5-Acetamino-6-amino-uracil]	0.6%	0%	
Cn1c(=O)[nH]c2[nH]c(=O)n(C)c2c1=O [1,7-Dimethyluric acid]	0%	0%	
Cn1c(=O)c2[nH]cnc2n(C)c1=O [1,3-Dimethyl Xanthine (Theophylline), 1,3-Dimethyl Xanthine]	0%	0.2%	
O=c1cc[nH]c(=O)[nH]1 [Uracil]	0%	0%	
Cn1c(=O)[nH]c(=O)c2[nH]cnc21 [3-Methyl Xanthine]	0%	0%	
Cn1c(=O)[nH]c2nc[nH]c2c1=O [1-Methyl Xanthine (1X), 1-Methyl Xanthine]	0%	100%	pIC50 (1X-Ab; read-out: concentration required for 50% inhibition in the competitive antigen ELISA, 1X-Ab): 5.00

Source: patent publication US20030077222A1, “Individualization of therapy with analgesics” (McGill University, priority 2001, published 2003)
